One data set has as its target P. falciparum. In words: In vitro toxicity against P. falciparum in culture (radiolabelled hypoxanthine incorporation / lactate dehydrogenase assay). It is filed as cell-based, Plasmodium falciparum, FCQ27. Here is the method:
P. falciparum, FCQ27, was maintained in culture using the techniques described by Trager & Jensen (W. Traqer and J. B. Jensen, Science, 193 673-675 (1976)). Cultures containing 2% hematocrit suspensions of parasitized human type O^+ erythrocytes in RPMI 1640 medium, supplemented with 25 mM HEPES-KOH, pH 7.2, 25 mM NaHCO3 and 10% human type O^+ serum (v/v) are maintained in modular incubator chambers at 37° C. in a gas mixture of 5% O2, 5% CO2 and 90% N2. The isolate of P. falciparum used in these experiments was FCQ27, routinely maintained in synchronized or asynchronous in vitro cultures at low hematocrit.
The potential toxicity of nucleoside analogues against P. falciparum in culture was tested in microtitre plates over the range of drug concentrations for 24 hours. The procedures for monitoring parasite viability is well established (A. M. Gero, H. V. Scott, W. J. O'Sullivan and R. I. Christopherson, Mol. Biochem. Parasitol. 34, 87-89 (1989)) and is based on radiolabelled hypoxanthine or isoleucine incorporation. The incorporation of [G-^3 H]hypoxanthine into the nucleic acids of P. falciparum was used to assess the viability of the parasite in vitro. Microculture plates were prepared with each well containing 225 μl of a 2% hematocrit culture of asynchronous parasited erythrocytes (1% parasitized cells). Each plate, containing varying concentrations of the drug to be studied (up to 200 μM final concentration for initial screen), was incubated for 24 h at 37° C. in a gas mixture of 5% O2, 5% CO2 and 90% N2, at which point [G-^3 H] hypoxanthine was added to each well and the incubation continued under identical conditions for a further 18-20 h. The control infected cells (i.e. without drug), routinely reached a parasitemia of 6-8% before harvesting. Expediency was aided by 96-well plate counter using lactate dehydrogenase for the drug susceptibility assay (L. K. Basco, F. Marguet, M. T. Makler and J. Lebbras, Exp. Parasitol. 80, 260-271 (1995); M. T. Makler and D. J. Hinrichs; Am. J. Trop. Med. Hyg. 48, 205-210 (1993)). This assay gave the identical results to the hypoxanthine technique. In addition, for each experiment, microscopic counting of Giemsa stained thin slides was used as a control.
The biological screen involved evaluation of the compounds against the protozoan P. falciparum in in vitro culture. The range of drug concentrations was used independently by two assays. One, radiolabelled hypoxanthine incorporation into the nucleic acid of P. falciparum, and the other, more expedient assay, a 96-well plate susceptibility assay using lactate dehydrogenase. Both assays gave identical results. In addition, microscopic counting of Giemsa stained thin slides was used as a control. Examples of experimental curves are attached as Appendix 2. The biological tests were done at several concentrations. The highest concentration was 200 μM, the compounds were considered active at concentrations less than 40 μM.

Data set [1] concerns P. falciparum infected erythrocytes (trophozoites). The format is in vitro ADME, human erythrocytes infected with Plasmodium falciparum. Here is the method: The metabolism of the L-nucleoside conjugates was studied by HPLC analysis. The primary aim was to determine their ability to be catabolized by parasite purine salvage enzymes. Some effect on the purine metabolic pools was also observed.
For each HPLC determination 200 μL of packed cells of 80-90% trophozoite infected cells were used. These were isolated from in vitro cultures by synchronization of the parasites in in vitro cultures using sterile D-sorbitol (L. Lambros and J. P. Vanderberg, Parasitol. 65, 418-420 (1979)) followed by separation of the trophozoites from non infected erythrocytes by Percoll gradients as described previously (A. M. Gero, H. V. Scott, W. J. O'Sullivan and R. I. Christopherson, Mol. Biochem. Parasitol. 34, 87-89 (1989)). Trophozoites were incubated at 37° C. for 2 hours with each compound to be tested. Compounds were incubated with both whole infected cells as whole and lyzed uninfected normal erythrocytes to determine:
a) entry to the cell (whether they were transported);
Drug incubation was terminated by centrifugation through silicon oil using the method of Upston and Gero (J. M. Upston and A. M. Gero, Biochem. Biophys. Acta. 1236, 249-258 (1995)). This procedure separated intact trophozoites from extracellular non-transported drug solution.
The metabolism of nucleosides with potential chemotherapeutic activity was assessed by the analysis of cytoplasmic samples by reverse phase ion-pair high performance liquid chromatography (R. S. Toguzov, Y. V. Tikhonov, A. M. Pimenov, V. Prokudin, Journal of Chromatography, I. Biomedical Appl. 434, 447-453 (1988)). Nucleotides, nucleosides and bases were separated by this HPLC method.
It has been established that transport and uptake in parasite invaded cells is different from that of normal blood erythrocytes (A. M. Gero & A. M. Wood, In: Pyrine & Pyrimidine Methabolism in Man VII, Part A. (R. A. Harkness et al., Eds) Plenum Press, NY, 169-172 (1991)). Invasion by the malaria parasite comprises the cell membrane, allowing penetration of unnatural substances of various size and shape, whereas normal cells are very selective in uptake. It was shown that L-nucleosides and their derivatives easily penetrate invaded cells, while they have a very slow rate of uptake into normal cells, if they enter at all. In order to obtain preliminary data on transport, uptake and metabolism, the HPLC method was used to analyze the following 10 Lipitek compounds: L-101, L-103, L-109, L-111, L-117, L-133, L-138, GCl 1007, GCl 1027, GCl 1069.
These compounds were chosen for the identification of possible metabolites. In this experiment the compounds were incubated with both whole infected cells, and with whole and lysed uninfected cells, followed by the separation of unreacted compound and HPLC analysis.

The mark [2] stands for this setting: Table 1, 24 h drug exposure, up to 200 μM, read-out: IC50.
The mark [3] stands for this setting: Plasmodium falciparum, 24 h, Table 1, 24 h drug exposure, up to 200 μM, read-out: IC50.
Where [4] appears, read: Plasmodium falciparum, Table 2, FUdR linkage position 5', read-out: IC50.
Setting [5] is: Plasmodium falciparum, Table 5, β-D-FUdR and possible metabolic products, read-out: IC50.

The record followed here is patent US6242428A, “Nucleoside analogs and uses in treating Plasmodium falciparum infection” (Unisearch Limited, priority 1998, dated 2001).

“Also recorded” adds a separate entry of the source. Like-named read-outs stand apart in the source and are kept apart here. Some results are limits rather than exact numbers.

For 6-thio-β-L-purine [GCI 1076], on P. falciparum (setting [2]), the IC50 was more than 200 µM.

`O=c1[nH]cc(F)c(=O)[nH]1` [5FUracil, 5-fluorouracil, reference compound] gave an IC50 with P. falciparum (Plasmodium falciparum) of 6 µM.

On to `O=c1[nH]c(=O)n([C@@H]2OC[C@H](O)[C@@H]2O)cc1F` [GCI 1007, α-L-erythrofuranosyl-5-fluorouracil], for which, in data set [1], the “entry to the infected cell” value was “entered the infected cells”. In addition, the IC50 in the data set on P. falciparum (setting [3]) is more than 200 µM. Also, in the data set with P. falciparum (statement in the transport and metabolism study), the “toxicity against P. falciparum, in words” value is recorded as “toxic against P. falciparum”.

For `Nc1ncnc2c1ncn2[C@@H]1O[C@@H](CO)[C@H](O)[C@H]1O` [GCI 1018, α-L-arabinofuranosyl adenine], in the data set with P. falciparum (Plasmodium falciparum, 24 h), the IC50 is more than 200 µM. As for `Nc1nc2c(ncn2[C@H]2O[C@@H](CO)[C@H](O)[C@@H]2O)c(=O)[nH]1` [GCI 1030, β-L-G], the IC50 in the data set with P. falciparum (setting [3]) was more than 200 µM. Same read-out and setting: as for `O=c1[nH]cnc2c1ncn2[C@H]1O[C@@H](CO)[C@H](O)[C@@H]1O` [GCI 1033, β-L-I], the figure is more than 200 µM; as for `Nc1ncnc2c1ncn2[C@@H]1C[C@@H](O)[C@H](CO)O1` [GCI 1036, β-L-Da], more than 200 µM; as for `O=c1[nH]cnc2c1ncn2[C@@H]1C[C@@H](O)[C@H](CO)O1` [GCI 1037, β-L-dI], more than 200 µM.

In turn, `Nc1ncnc2c1ncn2[C@@H]1O[C@@H](CO)[C@H](O)[C@@H]1O` [GCI 1066, α-L-A] came in with an IC50 in the data set with P. falciparum (Plasmodium falciparum, 24 h) of more than 200 µM.

Consider `Nc1nc2c(ncn2[C@@H]2C[C@@H](O)[C@H](CO)O2)c(=O)[nH]1` [GCI 1070, β-L-dG], for which the IC50 in the data set on P. falciparum (setting [3]) was more than 200 µM. On the same count and under the same terms, for `Nc1ncnc2c1ncn2[C@@H]1CC[C@H](CO)O1` [GCI 1077, β-L-ddA] the value was more than 200 µM; for `Nc1ncnc2c1ncn2[C@H]1CC[C@H](CO)O1` [GCI 1079, α-L-ddA], more than 200 µM; for `CNc1ncnc2c1ncn2[C@H]1O[C@@H](CO)[C@H](O)[C@@H]1O` [GCI 1085, N^6 -methyl-β-L-A], more than 200 µM. `O=c1[nH]c(=O)n([C@H]2C[C@@H](OP(O)(=S)OC[C@H]3O[C@@H](n4cc(F)c(=O)[nH]c4=O)C[C@@H]3O)[C@H](CO)O2)cc1F` (stereo partly drawn) [L-103 thio, [α-L,β-D]-FUdR, S = P-O]: the “In vitro activity against P. falciparum, in words” value in the data set on P. falciparum is “reduced dramatically”. In addition, the IC50 with P. falciparum (Plasmodium falciparum) is more than 200 µM; in the data set on P. falciparum (Plasmodium falciparum, 24 h), more than 200 µM. For the compound `Nc1ccn([C@@H]2C[C@@H](OP(=O)(O)OC[C@H]3O[C@@H](n4cc(F)c(=O)[nH]c4=O)C[C@@H]3O)[C@H](CO)O2)c(=O)n1` [L-113], the IC50 in the data set on P. falciparum (setting [3]) was 17 µM; in the data set on P. falciparum (setting [4]) it was 17 µM; in the data set with P. falciparum (Plasmodium falciparum, Table 3, β-L configuration of the L-nucleoside, read-out: IC50), 17 µM.

Regarding `O=c1ccn([C@@H]2C[C@@H](OP(O)(=S)OC[C@H]3O[C@@H](n4cc(F)c(=O)[nH]c4=O)C[C@@H]3O)[C@H](CO)O2)c(=O)[nH]1` (stereo partly drawn) [L-117 thio, β-L-dU, β-D-FUdR S = P-O], the “In vitro activity against P. falciparum, in words” value in the data set on P. falciparum is given as “reduced dramatically”. For the same compound, the IC50 with P. falciparum (Plasmodium falciparum) was more than 200 µM; with P. falciparum (Plasmodium falciparum, 24 h), more than 200 µM. As for `Nc1ncnc2c1ncn2[C@H]1C[C@@H](OP(=O)(O)OC[C@H]2O[C@@H](n3cc(F)c(=O)[nH]c3=O)C[C@@H]2O)[C@H](CO)O1` [L-125, α-L-dA, β-D-FUdR], in the data set on P. falciparum, the “In vitro activity against P. falciparum, in words” value is recorded as “reduces the dimer activity in comparison with dimers containing the β-L unit”. Moreover, the IC50 was determined as 60 µM with P. falciparum (setting [3]); 60 µM with P. falciparum (setting [4]); 60 µM with P. falciparum (Plasmodium falciparum, Table 3, α-L configuration of the L-nucleoside, read-out: IC50). Turning to `O=c1[nH]c(=O)n([C@H]2C[C@H](OP(O)(=S)OC[C@H]3O[C@@H](n4cc(F)c(=O)[nH]c4=O)C[C@@H]3O)[C@@H](CO)O2)cc1F` (stereo partly drawn) [L-128, β-D, β-D-FUdR] S = P-O], the “In vitro activity against P. falciparum, in words” value in the data set on P. falciparum was “only active phosphorothioate analog; also recorded: greater in comparison with all possible products of hydrolysis; also recorded: most active compound tested”. For the same compound, in the data set with P. falciparum (L-128 versus L-101), the “factor of increase in activity on replacing phosphate by phosphorothioate” value worked out at 10. For the same compound, the IC50 was 1.5 µM in the data set on P. falciparum (Plasmodium falciparum) and 1.5 µM in the data set with P. falciparum (Plasmodium falciparum, 24 h). On to `Nc1ncnc2c1ncn2[C@@H]1C[C@@H](OP(O)(=S)OC[C@H]2O[C@@H](n3cc(F)c(=O)[nH]c3=O)C[C@@H]2O)[C@H](CO)O1` (stereo partly drawn) [L-138-thio, β-L-dA, β-D-FUdR, S = P-O], for which the “In vitro activity against P. falciparum, in words” value with P. falciparum is reported as “reduced dramatically”. Further, the IC50 with P. falciparum (Plasmodium falciparum, 24 h) came to 100 µM. As for `O=[N+]([O-])c1ccc(CSc2ncnc3c2ncn3[C@@H]2O[C@H](CO)[C@@H](O)[C@H]2O)cc1` [NBMPR, nitrobenzylthionosine, reference compound], the IC50 in the data set on P. falciparum (setting [3]) came to 100 µM. Consider `O=c1[nH]c(=O)n([C@H]2C[C@H](O)[C@@H](COP(=O)(O)O)O2)cc1F` [β-D-5'-FUdRmP, β-D-FUdR monophosphate, reference compound], for which the IC50 in the data set on P. falciparum (setting [5]) came to 50 µM. Still for that read-out and setting: as for `O=c1[nH]c(=O)n([C@H]2C[C@H](O)[C@@H](CO)O2)cc1F` [β-D-FUdR, β-D-5-fluoro-2'-deoxyuridine, reference compound], the figure is 34 µM.

`O=c1[nH]c(=O)n([C@@H]2C[C@@H](O)[C@H](CO)O2)cc1F` [β-L-FUdR, β-L-5-fluoro-2'-deoxyuridine]: the IC50 in the data set with P. falciparum (Plasmodium falciparum, Erythrocyte, 24 h, Table 6, SATE derivatives of FUdR, read-out: ID50 (the source's name)) is more than 200 µM. Consider α-L-FUdR 5'SATE [B06], for which the IC50 on P. falciparum (setting [2]) worked out at 150 µM. In the case of α-L-dT, NBMPR [L-146], at P. falciparum (setting [2]), the IC50 was more than 200 µM. As to β-D-FUdR 3'-5'SATE [B03], the IC50 on P. falciparum (setting [2]) is 6 µM.

Consider β-D-FUdR 3'SATE [B01], for which the IC50 on P. falciparum (setting [2]) was 100 µM. With β-D-FUdR 5'SATE [B02], the IC50 at P. falciparum (setting [2]) was determined as 60 µM. For the compound β-D-FUdR, β-L-A [L-144], the IC50 at P. falciparum (setting [2]) is 140 µM; at P. falciparum (Table 2, FUdR linkage position 3', read-out: IC50) it was 140 µM. For β-L-FUdR 5'SATE [B04], at P. falciparum (setting [2]), the IC50 was 200 µM. As for β-L-dU, NBMPR [L-145], the IC50 on P. falciparum (setting [2]) was more than 200 µM. For β-L-mercapto-G [GCI 1034], the IC50 at P. falciparum (setting [2]) was more than 200 µM.
